Data on two molecules can be found in patent US20240294467A1, “USP9X Inhibitors” (ProDeg, LLC, priority 2021, published 2024).

The subject of experiment [1] is MDA-MB-231 cells. Briefly: WST-1 cell viability assay. The experiment is classed as cell-based. As to conditions: co-treatment of 10 μM Compound 5A. On the procedure:
(§1) Compound Compound 9A was tested for the ability to inhibit the proliferation of Mia-Paca-2 pancreatic cancer cells. Mia-Paca-2 and MDA-MB-231 cells were seeded into the wells of a 96 well tissue culture plate in complete medium (10% fetal calf serum) and incubated overnight at 37° C./5% CO2). The medium was exchanged for fresh medium containing varying concentrations of Compound 9A and the plate was incubated for 72 hours at 37° C./5% CO2. The viability of cells at the end of this incubation was assessed with the WST-1 reagent. To 10 ml of warm (37° C.) complete medium, 1 ml WST-1 reagent was added. The medium from the wells of the plate with the Mia-Paca-2 cells was removed and replaced with 100 μL of the WST-1 reagent in complete medium. The plate was incubated at 37 37° C./5% CO2. At timed intervals the absorbance at 450 nm was determined for each well in a UVNis plate reader. For each well the slope of the plot of the absorbance 450 nm vs time was determined. The readings were normalized to that of the wells for the untreated control and a dose-response curve was plotted. A fit to the data was made from a four parameter, variable slope program (GraphPad Prism) and the IC50 was determined.
The TNBC cell line MDA-MB-231 express high levels of Mcl-1 and USP9X in addition to Bcl-2 and Bcl-xL. MDA-MB-231 cells were treated with ABT737 for 72 hours at varying concentrations and underwent western blot analysis.

Experiment [2] relates to U937 cells. Briefly: WST-1 cell viability assay. As to conditions: for IC50: Homo sapiens, U-937, 72-hour treatment. The experiment is classed as cell-based. On the procedure: as §1
The effect of Compound 7A on U937 cells was assessed using the same experiment described in the Inhibitory Activities against the Proliferation of Mia-Paca-2 and Other Cancer Cells section above. In response to treatment with Compound 7A, proliferation of U937 leukemia cells was inhibited and induced apoptosis was obsessed by trypan blue staining.
U937 cells were treated with the Bcl-2/Bcl-xL inhibitor ABT737 72 hours at varying concentrations and underwent western blot analysis.
Background: Tetrazolium assays rely on reduction of a dye to a coloured formazan, in cell work by metabolically active cells.

Experiment [3] relates to BT-549 cancer cells. The experiment in a line: WST-1 cell viability assay. It counts as cell-based, human. As to conditions: BT-549 cells. On the procedure: as §1
(§2) The same procedures were also applied to the compounds Compound 7A, Compound 6A, and Compound 8A to test their inhibitory activities against RKO colon, Mia-Paca-2 pancreatic and BT-549 cancer cells.

Experiment [4] deals with SK-BR3 breast cancer cells. The experiment in a line: WST-1 cell viability assay. As to conditions: Homo sapiens, SK-BR-3, 72-hour treatment, read-out: IC50, inhibiting proliferation. The experiment is classed as cell-based. On the procedure: as §1
Another substrate of USP9X is the receptor tyrosine kinase erbB2. […] The breast cancer cell line SK-BR3 expresses high levels of erbB2. […]

For experiment [5], the system named is H82. Briefly: ONCOLINES Profiler proliferation. It counts as cell-based. An excerpt:
(§3) The compounds were profiled on an ONCOLINES™ Profiler (Netherlands Translational Research Center) assayed with 66 cancer cell lines to determine if they were capable of inhibiting the proliferation of these cancer cells.
(§4) To further evaluate potency of the compounds, they were compared with the USP9X inhibitor WP 1130 by screening both the compounds and WP1130 on a 66-cancer cell line panel ONCOLINES™ Profiler.

The test system of experiment [6] is LoVo. The experiment in a line: ONCOLINES Profiler proliferation. As to conditions: for IC50: colorectal adenocarcinoma. The experiment is classed as cell-based.
Text: as §3, §4

Experiment [7] has as its system A-172. The experiment in a line: ONCOLINES Profiler proliferation. It counts as cell-based.
Text: as §3, §4

Experiment [8] deals with A549. The experiment in a line: ONCOLINES Profiler proliferation. It counts as cell-based.
Text: as §3, §4

For experiment [9], the system named is RKO. The experiment in a line: ONCOLINES Profiler proliferation. It counts as cell-based. As to conditions: for IC50: colon carcinoma.
Text: as §3, §4

Experiment [10] relates to MOLT-4. Briefly: ONCOLINES Profiler proliferation. It counts as cell-based.
Text: as §3, §4

In experiment [11] the test system is BT-20. Briefly: ONCOLINES Profiler proliferation. It counts as cell-based.
Text: as §3, §4

Experiment [12] deals with CCRF-CEM. Briefly: ONCOLINES Profiler proliferation. The experiment is classed as cell-based. As to conditions: for IC50: acute lymphoblastic leukemia.
Text: as §3, §4

The subject of experiment [13] is RPMI-7951. Briefly: ONCOLINES Profiler proliferation. It counts as cell-based.
Text: as §3, §4

The subject of experiment [14] is Hs 57BT. Briefly: ONCOLINES Profiler proliferation. It counts as cell-based. As to conditions: for IC50: Hs 57BT (Hs578T), breast carcinoma.
Text: as §3, §4

Experiment [15] concerns DU 145. Briefly: ONCOLINES Profiler proliferation. The experiment is classed as cell-based.
Text: as §3, §4

For experiment [16], the system named is PD-L1. Briefly: Western blot of PD-L1 in MIA PaCa-2 cells. The experiment is classed as cell-based. As to conditions: 24 hours. The method, then: MIA PaCa-2 cells expressing detectable levels of PD-L1 are treated with Compound 7A at various concentrations for 24 hours, and the ensuing level of PD-L1 are determined by Western blot to decrease by about 50% after the treatment.

For experiment [17], the system named is erbB2. Briefly: Western blot of erbB2 in SK-BR3 cells. It counts as cell-based, human. As to conditions: 72-hour treatment, 10 μm. On the procedure: Another substrate of USP9X is the receptor tyrosine kinase erbB2. […] The breast cancer cell line SK-BR3 expresses high levels of erbB2. This cell line was treated with Compound 7A and the effects on cell viability as well as expression levels of erbB2 were examined.
Compound 7A inhibited the viability of SK-BR3. The levels of erbB2 were determined by Western blot and found to decrease in parallel with the decline in cell viability. After 72-hour treatment of 10 μm Compound 7A, the level of erbB2 declined to about zero. The loss of erbB2 from the plasma membrane was also confirmed by flow cytometry.

Experiment [18] has as its system Mia-Paca-2 pancreatic cancer cells. Briefly: WST-1 cell viability assay. It counts as cell-based. As to conditions: Mia-Paca-2 pancreatic cells. On the procedure: as §1, §2
Experiment [19] deals with RKO colon cells. Briefly: WST-1 cell viability assay. The experiment is classed as cell-based. The method, then:
as §1, §2

Where two headings read alike, the source gives them in different places.

With `CN1CCOc2ccc(cc2)C(=O)NCc2cccc(c2)C(=O)N[C@@H](CC(C)(C)C)C(=O)Nc2ccc(cc2)CCN(C)C(=O)CC(C)(C)CC1=O` [Compound 5A], the “enhancement in ABT737's potency / sensitivity of cells to ABT737” value in experiment [1] came to 5 fold.

For `CN1CCOc2ccc(cc2)C(=O)NCc2ccc(F)c(c2)C(=O)N[C@@H](CC(C)(C)C)C(=O)Nc2ccc(cc2)CCN(C)C(=O)CC(C)(C)CC1=O` [Compound 7A], the IC50 is 270 nM in experiment [2] (read-out: IC50 for the inhibition of U937); 270 nM in experiment [2] (U937 cells, single agent, read-out: IC50, cell viability); 2700 nM in experiment [4]; 1100 nM in experiment [5] (Homo sapiens, NCI-H82, H82, small cell lung); 635 nM in [6] (Homo sapiens); 640 nM in experiment [6]. The IC50 in experiment [7] (A-172, glioblastoma) was determined as 1100 nM; in experiment [7] (Homo sapiens, A 172, A-172, glioblastoma) it was 1070 nM; in [8] (Homo sapiens, A549, lung), 3000 nM; in experiment [9] (Homo sapiens), 880 nM; in [9], 683 nM; in experiment [10] (Homo sapiens, MOLT-4, MOLT-4, acute lymphoblastic leukemia), 594 nM. In addition, the IC50 was determined as 590 nM in [10] (MOLT-4, acute lymphoblastic leukemia); 1400 nM in experiment [11] (BT-20, breast carcinoma); 1390 nM in experiment [11] (Homo sapiens, BT-20, BT-20, breast carcinoma); 247 nM in [12] (Homo sapiens); 250 nM in experiment [12]; 1200 nM in experiment [13] (Homo sapiens, RPMI-7951, RPMI-7951, malignant melanoma). Besides, the IC50 came to 1200 nM in experiment [13] (RPMI-7951, malignant melanoma); 1410 nM in [14] (Homo sapiens, Hs-578T); 1400 nM in [14]; 2000 nM in experiment [15] (DU 145, prostate carcinoma); 2010 nM in experiment [15] (Homo sapiens, DU-145, DU 145, prostate carcinoma). Further, the “enhancement in ABT737's potency / sensitivity of cells to ABT737” value in experiment [2] (U937 cells, co-treatment of 0.5 μM Compound 7A) is on record as 57 fold. Further, the “cell viability decreased to” value in experiment [2] (U937 cells, when Mcl-1 level decreased by 50%) stood at 0. Also, the “cell viability” value in experiment [3], in experiment [18] and in experiment [19] was “significant decreases” each time. Also, the “IC50 Ratio WP1130/Compound 7A” value in [5] (H82) is listed as 6.0; in experiment [6] it was 8.6; in experiment [7] (A-172), 5.1; in experiment [8] (A549) it was 4.7; in experiment [9], 4.9; in experiment [10] (MOLT-4), 6.8. Moreover, the “IC50 Ratio WP1130/Compound 7A” value was determined as 3.6 in experiment [11] (BT-20); 17.6 in [12]; 3.5 in experiment [13] (RPMI7951); 4.5 in experiment [14] (Hs578T); 4.8 in experiment [15] (DU145). Also, the “decrease of level of PD-L1” value in experiment [16] was “about 50%”. Also, in experiment [17], the “level of erbB2 declined to” value is “about zero”.
